Laboratory results reported in US20220388962A1 (Biohaven Therapeutics Ltd., priority 2019, published 2022).
Counter-ions that a name gives are not always drawn.

Target: TDP-43 (Homo sapiens, UniProt Q13148)
Assay: TDP-43-DNA alpha-screen assay (bt-TAR-32 displacement)
Assay type: binding
Conditions: bt-TAR-32 0.125 nM, 15 ng/ml TDP-43
Experimental: Alpha-screen assay: Displacement of bt-TG6 binding was measured using AlphaScreen technology as previously described (Cassel, J. A. et al., Journal of Biomolecular Screening, 2010, 15, 1099-1106; Cassel, J. A.; Reitz, A. B. et al. The effects of small molecule inhibitors of nucleic acid binding to TDP-43 on TDP-43 metabolism and function. Biochimie, 2012, 94, 1974-1981).
Test compounds were diluted in assay buffer (25 mM Tris [pH 7.4], 0.1% bovine serum albumin [BSA], 0.1% Triton X-100) at 4× the desired final concentration. Dilutions of test compound (50 to 0.02 μM in half-log dilutions with a no compound control well) were pre-incubated with TDP-43 (5 μl of 60 ng/mL) pre-bound to AlphaScreen® anti-GST acceptor beads (5 μl of 40 μg/mL) in 15 μl volume for 30 minutes at 23° C. with shaking. Assays were initiated by the addition of 5 μl bt-TAR-32 (5′-CTGCTTTTTGCCTGTACTGGGTCTCTGTGGTT-3′) 0.5 nM pre-bound to AlphaScreen® strepavidin donor beads (40 μg/mL). After incubation in the dark at 23° C. for 90 minutes with shaking, the AlphaScreen® signal was measured on a Synergy 2 plate reader (BioTek, Winooski, Vt.). IC50 values were determined from nonlinear regression fits of the data to a Sigmoidal dose response variable slope model in GraphPad Prism. Final assay conditions are 25 mM Tris [pH 7.4], 0.1% bovine serum albumin [BSA], 0.100 Triton X-100, 15 ng/ml TDP-43, 0.125 nM bTAR32, 10 ug/ml […].

TDP-43, sequence (Q13148 whole entry): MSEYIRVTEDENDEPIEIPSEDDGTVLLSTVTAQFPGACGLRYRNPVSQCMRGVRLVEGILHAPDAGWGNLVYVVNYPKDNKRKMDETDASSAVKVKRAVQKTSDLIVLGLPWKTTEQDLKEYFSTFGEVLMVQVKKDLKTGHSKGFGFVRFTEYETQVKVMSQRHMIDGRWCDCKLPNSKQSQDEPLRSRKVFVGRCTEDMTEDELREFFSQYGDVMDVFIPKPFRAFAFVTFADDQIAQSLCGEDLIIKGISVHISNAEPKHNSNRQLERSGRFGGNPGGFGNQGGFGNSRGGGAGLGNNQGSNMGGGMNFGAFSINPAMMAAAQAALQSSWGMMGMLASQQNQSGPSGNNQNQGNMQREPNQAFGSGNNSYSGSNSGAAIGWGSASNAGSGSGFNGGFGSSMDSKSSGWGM

SMILES	IC50
COc1ccc(-c2cc(NCCCNCCCNc3ccncc3)c3ccccc3n2)cc1 [Example 63, N^1-(2-(4-methoxyphenyl)quinolin-4-yl)-N^3-(3-(pyridin-4-ylamino)propyl)propane-1,3-diamine dihydrochloride]	0.1 µM
COc1ccc(-c2cc(NC3CCN(CCCN4C(=O)c5ccccc5C4=O)CC3)c3ccccc3n2)cc1 [Example 64, 2-(3-(4-((2-(4-Methoxyphenyl)quinolin-4-yl)amino)piperidin-1-yl)propyl) isoindoline-1,3-dione dihydrochloride]	3.6 µM
COc1ccc(-c2cc(NCC3CCCN(CCCN4C(=O)c5ccccc5C4=O)C3)c3ccccc3n2)cc1 (stereo not drawn) [Example 65, 2-(3-(3-(((2-(4-Methoxyphenyl)quinolin-4-yl)amino)methyl)piperidin-1-yl)propyl)isoindoline-1,3-dione]	0.73 µM
COc1ccc(-c2cc(NCCCNCCCNS(C)(=O)=O)c3ccccc3n2)cc1 [Example 66, N-(3-((3-((2-(4-Methoxyphenyl)quinolin-4-yl)amino)propyl)amino)propyl) methanesulfonamide hydrochloride]	1.41 µM
COc1ccc(-c2cc(NCCC3CCCCN3CCCN3C(=O)c4ccccc4C3=O)c3ccccc3n2)cc1 (stereo not drawn) [Example 67, 2-(3-(2-(2-((2-(4-Methoxyphenyl)quinolin-4-yl)amino)ethyl)piperidin-1-yl)propyl) isoindoline-1,3-dione]	0.29 µM
COc1ccc(-c2cc(NCCCN3CCN4CCCC4C3)c3ccccc3n2)cc1 (stereo not drawn) [Example 68, N-(3-(Hexahydropyrrolo[1,2-a]pyrazin-2(1H)-yl)propyl)-2-(4-methoxyphenyl)quinolin-4-amine dihydrochloride]	2.16 µM
COc1ccc(-c2cc(NC3CCN(C4CCN(C)CC4)CC3)c3ccccc3n2)cc1 [Example 69, 2-(4-Methoxyphenyl)-N-(1′-methyl-[1,4′-bipiperidine]-4-yl)quinolin-4-amine]	0.47 µM
COc1ccc(-c2cc(NCCCNC3CCC4CN(Cc5ccccc5)CC43)c3ccccc3n2)cc1 (stereo not drawn) [Example 70, N^1-(2-Benzyloctahydrocyclopenta[c]pyrrol-4-yl)-N^3-(2-(4-methoxyphenyl)quinolin-4-yl)propane-1,3-diamine trihydrochloride]	0.17 µM
COc1ccc(-c2cc(NCCCNCC3CCN(CC4CC4)CC3)c3ccccc3n2)cc1 [Example 71, N^1-((1-(Cyclopropylmethyl)piperidin-4-yl)methyl)-N^3-(2-(4-methoxyphenyl)quinolin-4-yl)propane-1,3-diamine trihydrochloride]	0.1 µM
COc1ccc(-c2cc(NCCCN3CCC(C(N)=O)CC3)c3ccccc3n2)cc1 [Example 72, 1-(3-((2-(4-Methoxyphenyl)quinolin-4-yl)amino)propyl)piperidine-4-carboxamide dihydrochloride]	0.93 µM
COc1ccc(-c2cc(NCCCN3CCN(C)CC3)c3ccccc3n2)cc1 [Example 73, 2-(4-Methoxyphenyl)-N-(3-(4-methylpiperazin-1-yl)propyl)quinolin-4-amine]	1.71 µM
COc1ccc(-c2cc(NCCN3CCN(C)CC3)c3ccccc3n2)cc1 [Example 74, 2-(4-Methoxyphenyl)-N-(2-(4-methylpiperazin-1-yl)ethyl)quinolin-4-amine]	1.85 µM
COc1ccc(-c2cc(NCCCN3CCC(O)CC3)c3ccccc3n2)cc1 [Example 75, 1-(3-((2-(4-Methoxyphenyl)quinolin-4-yl)amino)propyl)piperidin-4-ol]	0.59 µM
COc1ccc(-c2cc(NCCCN3CCOCC3)c3ccccc3n2)cc1 [Example 76, 2-(4-Methoxyphenyl)-N-(3-morpholinopropyl)quinolin-4-amine]	6.28 µM
COc1ccc(-c2cc(NCCCN(C)CCCNC(=O)Cc3c(C)c4ccc(N)cc4oc3=O)c3ccccc3n2)cc1 [Example 77, 2-(7-Amino-4-methyl-2-oxo-2H-chromen-3-yl)-N-(3-((3-((2-(4-methoxyphenyl)quinolin-4-yl)amino)propyl)(methyl)amino)propyl)acetamide trihydrochloride]	0.25 µM
COc1ccc(-c2cc(NCCCN(C)CCCNS(=O)(=O)c3cccc4c(N(C)C)cccc34)c3ccccc3n2)cc1 [Example 78, 5-(dimethylamino)-N-{3-[(3-{[2-(4-methoxyphenyl)quinolin-4 yl]amino}propyl)(methyl)amino]propyl}naphthalene-1-sulfonamide]	1.26 µM
CN1CCC(n2cc(-c3cc(NCCCN)c4ccccc4n3)cn2)CC1 [Example 93]	0.09 µM
COc1ccc(-c2cc(NCCCN(C)CCCN)c3cc(OC)c(OC)cc3n2)cc1 [Example 94]	0.1 µM
NCCCNc1cc(-c2ccc(C3CCNCC3)cc2)nc2ccccc12 [Example 95]	0.11 µM
NCCCNc1cc(-c2cnn(C3CCNCC3)c2)nc2ccccc12 [Example 96]	0.12 µM
COc1ccc(-c2cc(N[C@H]3C[C@H](N)C3)c3cc(OC)c(OC)cc3n2)cc1 [Example 97]	0.13 µM
CN(C)CCCNc1cc(-c2cccc(N3CCNCC3)c2)nc2ccccc12 [Example 98]	0.14 µM

Other lines, results leading:

IC50	SMILES
0.02 µM	COc1cc2nc(-c3ccc(N4CCNCC4)cc3)cc(N[C@H]3C[C@@H](N)C3)c2cc1OC [Example 79]
0.02 µM	COc1cc2nc(-c3ccc(N4CCNCC4)cc3)cc(N[C@H]3C[C@H](N)C3)c2cc1OC [Example 80]
0.03 µM	COc1cc2nc(-c3ccc(N4CCNCC4)cc3)cc(N[C@H]3CC[C@H](N)CC3)c2cc1OC [Example 81, (1R,4R)—N^1-(6,7-dimethoxy-2-(4-(piperazin-1-yl)phenyl)quinolin-4-yl)cyclohexane-1,4-diamine]
0.03 µM	COc1cc2nc(-c3ccc(N4CCNCC4)cc3)cc(NCCCN)c2cc1OC [Example 82]
0.03 µM	N[C@H]1C[C@@H](Nc2cc(-c3ccc(N4CCNCC4)cc3)nc3ccccc23)C1 [Example 83]
0.04 µM	NCCCNc1cc(-c2ccc(-n3cc4c(n3)CNC4)cc2)nc2ccccc12 [Example 84, N^1-(2-(4-(5,6-dihydropyrrolo[3,4-c]pyrazol-2(4H)-yl)phenyl)quinolin-4-yl)propane-1,3-diamine]
0.04 µM	COc1cc2nc(-c3ccc(N4CCNCC4)cc3)cc(N[C@H]3CC[C@@H](N)CC3)c2cc1OC [Example 85]
0.05 µM	NCCCNc1cc(-c2ccc(N3CCNCC3)cc2)nc2ccccc12 [Example 86]
0.05 µM	COc1cc2nc(-c3ccc(N4CCNCC4)cc3)cc(NCCCN(C)C)c2cc1OC [Example 87, N-(3-(dimethylamino)propyl)-6,7-dimethoxy-2-(4-(piperazin-1-yl)phenyl)quinolin-4-amine]
0.06 µM	CN(CCCN)CCCNc1cc(-c2cccc(N3CCNCC3)c2)nc2ccccc12 [Example 88]
0.08 µM	COc1ccc(-c2cc(NC3CCC(N)CC3)c3cc(OC)c(OC)cc3n2)cc1 (stereo not drawn) [Example 89]
0.08 µM	NC1CCC(Nc2cc(-c3ccc(N4CCNCC4)cc3)nc3ccccc23)CC1 (stereo not drawn) [Example 90]
0.09 µM	CC(C)C(N)C(=O)N1CCN(c2ccc(-c3cc(NCCCN(C)C)c4ccccc4n3)cc2)CC1 (stereo not drawn) [Example 91, 2-amino-1-(4-(4-(4-((3-(dimethylamino)propyl)amino)quinolin-2-yl)phenyl)piperazin-1-yl)-3-methylbutan-1-one]
0.09 µM	CC(N)C(=O)N1CCN(c2ccc(-c3cc(NCCCN(C)C)c4ccccc4n3)cc2)CC1 (stereo not drawn) [Example 92]
